In US20190225650A1, “PEPTIDOMIMETIC MACROCYCLES AND USE THEREOF IN REGULATING HIF1ALPHA” (AILERON THERAPEUTICS, INC., priority 2013, published 2019):
Bridge positions count the residues as written; N and C are the ends. Square brackets hold non-standard residues; d marks the D form. Peptide text beside a SMILES is read from it. R8 = C=CCCCCCC[C@@](C)(N)C(=O)O; S5 = C=CCCC[C@](C)(N)C(=O)O; Nle = CCCC[C@H](N)C(=O)O

Columns and labels:
[1] = target: T1, flag-tagged HIF1α (AA 786-826) / His6-tagged p300 (AA 323-423) complex (Homo sapiens, UniProt Q09472); experiment: HIF1α p300 displacement assay (TR FRET, +CHAPS); type: binding; conditions: read-out: IC50 (nM) (HIF1α_p300 Displacement + CHAPS)
T1 construct: His6-tagged p300 (AA 323-423); made in house; host or cells: E. coli (pETDuet vector)
Experimental: The ability of peptides to displace HIF1α c-terminal trans-activation domain from p300-CH was measured by a TR FRET assay. A complex of flag-tagged HIF1α (AA 786-826) and His6-tagged p300 (AA 323-423) was co-expressed using pETDuet vector (EMDMillipore, Bellrica Mass.) and purified from E. coli in the presence of 0.1 mM ZnSO4. The complex was diluted to 300 nM final in complete assay media and competitor peptides were added. The complete assay media contained 150 mM NaCl (Sigma +S5150 or equivalent), 20 mM HEPES pH 7.4 (Boston Bioproducts, Ashland, Mass.; #BB-2076), 7.5 mM CHAPS (Thermo #28300 or equivalent), and 1 mM DTT. Protein and peptide were incubated at room temperature for 1 hour before the addition of anti-Flag-K and anti-6×HIS-D2 (CisBio, Bedford Mass.) HTRF reconstitution buffer (50 mM Phosphate pH 7, 0.8 Potassium Flouride, BSA 0.2%)^1 to a final concentration of 0.5 μM and 4 nM respectively. The reaction continued for an additional two hours at room temperature. The reaction was read on a TECAN F500 plate reader with settings recommended by CisBio. The ratio of donor to acceptor fluorescence was calculated. The resulting data was analyzed with Graphpad Prism 5.0. IC50 values were calculated for both proteins using the One Site Fit-LogIC50 equation and presented in the column “IC50 (nM) (HIF1α_p300 Displacement+CHAPS)” of Table 6. ^1 Cisbio USA, Bedford, Mass.; 61HISDLB (lot 007A), 61FG2KLB (024A), HTRF Buffer (62RB3RDF)

HRE-bla ME-180 cells = experiment: Reporter gene assay (HRE-bla ME-180 HIF reporter, GeneBLAzer); type: cell-based, human; conditions: for EC50: 24 hour normoxia
Outline: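 A FRET β-lactamase readout of HIF transcription was used. After compound treatment in 0.3% DMSO/media under normoxic conditions, 20 μl of 6× LiveBLAzer-FRET B/G (CCF4-AM) substrate was added. Plates sat 3 hr at room temperature in the dark and were read at 409 Ex/460Em and 409Ex/530Em on a Synergy 2. Inhibition was compared against DMSO vehicle controls, with chetomin as positive control.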

CCCC[C@H](NC(=O)[C@H](CCC(=O)O)NC(=O)[C@@H](NC(=O)[C@@H](NC(=O)[C@H](CC(N)=O)NC(=O)[C@]1(C)CCCC=CCCC[C@](C)(NC(=O)[C@H](C)NC(=O)[C@H](CC(=O)O)NC(=O)[C@@H](NC(=O)[C@H](Cc2ccccc2)NC(C)=O)[C@@H](C)CC)C(=O)N[C@@H](C(C)C)C(=O)N[C@@H](CC(C)C)C(=O)N[C@@H](CCCC)C(=O)N1)C(C)C)[C@@H](C)CC)C(=O)N[C@@H](C)C(=O)N[C@@H](CC(C)C)C(N)=O [SP-150] (Ac-FIDA[S5]VL[Nle][S5]NVIE[Nle]AL-NH2; staple 5-9)
IC50 [1]: 200 to 400 nM

CC[C@H](C)[C@H](NC(=O)[C@H](Cc1ccccc1)NC(C)=O)C(=O)N[C@@H](CC(=O)O)C(=O)N[C@@H](CCC(=O)O)C(=O)N[C@]1(C)CCCCCCC=CCCC[C@@](C)(C(=O)N[C@@H](CCC(=O)O)C(=O)N[C@@H](CCSC)C(=O)NCC(=O)N[C@@H](CC(C)C)C(=O)N[C@@H](CC(=O)O)C(N)=O)NC(=O)[C@H](C(C)C)NC(=O)[C@H](CC(C)C)NC(=O)[C@H](CO)NC(=O)[C@H](CCSC)NC(=O)[C@H](CC(C)C)NC(=O)[C@H](C(C)C)NC1=O [SP-188] (Ac-FIDE[R8]VLMSLV[S5]EMGLD-NH2; staple 5-12)
IC50 [1]: > 700 nM

CCCC[C@H](NC(=O)[C@H](CCC(=O)O)NC(=O)[C@@H](NC(=O)[C@@H](NC(=O)[C@H](CC(C)C)NC(=O)[C@]1(C)CCCC=CCCC[C@](C)(NC(=O)[C@H](CCC(=O)O)NC(=O)[C@H](CC(=O)O)NC(=O)[C@@H](NC(=O)[C@H](Cc2ccccc2)NC(=O)[C@H](CCCCN)NC(=O)[C@H](CCCCN)NC(C)=O)[C@@H](C)CC)C(=O)N[C@@H](C(C)C)C(=O)N[C@@H](CC(C)C)C(=O)N[C@@H](CCCC)C(=O)N1)C(C)C)[C@@H](C)CC)C(=O)N[C@@H](C)C(=O)N[C@@H](CC(C)C)C(N)=O [SP-135] (Ac-KKFIDE[S5]VL[Nle][S5]LVIE[Nle]AL-NH2; staple 7-11)
IC50 [1]: > 700 nM

CCCC[C@H](NC(=O)[C@H](CCC(=O)O)NC(=O)[C@@H](NC(=O)[C@]1(C)CCCC=CCCC[C@](C)(NC(=O)[C@@H](NC(=O)[C@H](CCC(=O)O)NC(=O)[C@H](CCC(=O)O)NC(=O)[C@H](CC(=O)O)NC(=O)[C@@H](NC(=O)[C@H](CC(N)=O)NC(=O)[C@@H](NC(=O)[C@H](CCC(N)=O)NC(=O)[C@]2(C)CCCC=CCCC[C@](C)(NC(=O)[C@H](CC(C)C)NC(=O)[C@H](CCC(=O)O)NC(=O)[C@H](CCC(=O)O)NC(=O)CNC(=O)[C@H](CCC(N)=O)NC(=O)[C@H](CC(C)C)NC(=O)[C@H](CC(C)C)NC(C)=O)C(=O)N[C@@H](CCCNC(=N)N)C(=O)N[C@@H](C)C(=O)N[C@@H](CC(C)C)C(=O)N2)C(C)C)[C@@H](C)CC)C(C)C)C(=O)N[C@@H](CCCC)C(=O)N[C@@H](CO)C(=O)N[C@@H](CC(C)C)C(=O)N1)[C@@H](C)CC)C(=O)NCC(N)=O [SP-304] (Ac-LLQGEEL[S5]RAL[S5]QVNIDEEV[S5][Nle]SL[S5]IE[Nle]G-NH2; staple 8-12, 21-25)
IC50 [1]: > 700 nM

CCCC[C@H](NC(=O)[C@H](CCC(=O)O)NC(=O)[C@@H](NC(=O)[C@@H](NC(=O)[C@H](CC(C)C)NC(=O)[C@]1(C)CCCC=CCCC[C@](C)(NC(=O)[C@H](CCC(=O)O)NC(=O)[C@H](CC(=O)O)NC(=O)[C@@H](NC(=O)[C@H](Cc2ccccc2)NC(=O)[C@H](CCCCN)NC(C)=O)[C@@H](C)CC)C(=O)N[C@@H](C(C)C)C(=O)N[C@@H](CC(C)C)C(=O)N[C@@H](CCCC)C(=O)N1)C(C)C)[C@@H](C)CC)C(=O)N[C@@H](C)C(=O)N[C@@H](CC(C)C)C(=O)N[C@@H](CCCCN)C(N)=O [SP-136] (Ac-KFIDE[S5]VL[Nle][S5]LVIE[Nle]ALK-NH2; staple 6-10)
IC50 [1]: > 700 nM

CCCC[C@@H]1NC(=O)[C@H](CC(C)C)NC(=O)[C@](C)(NC(=O)[C@H](CCC(=O)O)NC(=O)[C@H](CCC(=O)O)NC(=O)[C@H](CC(=O)O)NC(=O)[C@@H](NC(=O)[C@H](CC(N)=O)NC(=O)[C@@H](NC(=O)[C@H](CCC(N)=O)NC(=O)[C@H](CC(=O)O)NC(=O)[C@H](CC(C)C)NC(=O)[C@H](C)NC(=O)[C@H](CCCNC(=N)N)NC(=O)[C@]2(C)CCCC=CCCC[C@](C)(NC(=O)[C@H](CCC(N)=O)NC(=O)[C@H](CC(C)C)NC(=O)[C@H](CC(C)C)NC(C)=O)C(=O)N[C@@H](CCC(=O)O)C(=O)N[C@@H](CCC(=O)O)C(=O)N[C@@H](CC(C)C)C(=O)N2)C(C)C)[C@@H](C)CC)CCCCCCC=CCCC[C@@](C)(C(=O)N[C@@H](CCCC)C(=O)NCC(N)=O)NC(=O)[C@H]([C@@H](C)CC)NC(=O)[C@H](C(C)C)NC(=O)[C@H](CC(C)C)NC(=O)[C@H](CO)NC1=O [SP-329] (Ac-LLQ[S5]EEL[S5]RALDQVNIDEE[R8]L[Nle]SLVI[S5][Nle]G-NH2; staple 4-8, 20-27)
IC50 [1]: > 700 nM

CCCC[C@H](NC(=O)[C@H](CCC(=O)O)NC(=O)[C@@H](NC(=O)[C@H](CCC(=O)O)NC(=O)[C@H](CCC(=O)O)NC(=O)[C@H](CC(=O)O)NC(=O)[C@@H](NC(=O)[C@H](Cc1ccccc1)NC(C)=O)[C@@H](C)CC)C(C)C)C(=O)N[C@@]1(C)CCCC=CCCC[C@@](C)(C(=O)N[C@@H](CCCC)C(=O)N[C@@H](C)C(=O)N[C@@H](CC(C)C)C(=O)N[C@@H](CC(=O)O)C(=O)N[C@@H](CCCNC(=N)N)C(=O)N[C@H](C(N)=O)[C@@H](C)CC)NC(=O)[C@H]([C@@H](C)CC)NC(=O)[C@H](C(C)C)NC(=O)[C@H](CC(C)C)NC1=O [SP-33] (Ac-FIDEEVE[Nle][S5]LVI[S5][Nle]ALDRI-NH2; staple 9-13)
18 h Avg % max inhibition at top conc (HIF Rptr-24 hrs normoxia) (μM) (HRE-bla ME-180 cells): +++ (≤25 but <50: +++) | EC50 (HRE-bla ME-180 cells): > 30 µM

CC[C@H](C)[C@H](NC(=O)[C@H](Cc1ccccc1)NC(C)=O)C(=O)N[C@@H](CC(=O)O)C(=O)N[C@@H](CCC(=O)O)C(=O)N[C@@H](CCC(=O)O)C(=O)N[C@H](C(=O)N[C@@H](CC(C)C)C(=O)N[C@@H](C)C(=O)N[C@@]1(C)CCCC=CCCC[C@@](C)(C(=O)N[C@@H](C)C(=O)N[C@@H](C)C(=O)N[C@@H](CC(C)C)C(=O)N[C@@H](CC(=O)O)C(N)=O)NC(=O)[C@H]([C@@H](C)CC)NC(=O)[C@H](C(C)C)NC(=O)[C@H](CC(C)C)NC1=O)C(C)C [SP-60] (Ac-FIDEEVLA[S5]LVI[S5]AALD-NH2; staple 9-13)
18 h Avg % max inhibition at top conc (HIF Rptr-24 hrs normoxia) (μM) (HRE-bla ME-180 cells): + (<10: +) | EC50 (HRE-bla ME-180 cells): > 30 µM

CC[C@H](C)[C@H](NC(C)=O)C(=O)N[C@@H](CC(=O)O)C(=O)N[C@@H](CCC(=O)O)C(=O)N[C@@H](CCC(=O)O)C(=O)N[C@H](C(=O)N[C@@H](CC(C)C)C(=O)N[C@@H](CCSC)C(=O)N[C@@]1(C)CCCC=CCCC[C@@](C)(C(=O)N[C@@H](CCSC)C(=O)NCC(=O)N[C@@H](CC(C)C)C(=O)N[C@@H](CC(=O)O)C(=O)N[C@@H](CCCNC(=N)N)C(=O)N[C@H](C(=O)N[C@@H](CCCCN)C(=O)N[C@@H](CCC(=O)O)C(=O)N[C@@H](CC(C)C)C(=O)N2CCC[C@H]2C(=O)N[C@@H](CCC(=O)O)C(=O)N[C@@H](CC(C)C)C(=O)N[C@@H](Cc2c[nH]c3ccccc23)C(=O)N[C@@H](CC(C)C)C(N)=O)[C@@H](C)CC)NC(=O)[C@H]([C@@H](C)CC)NC(=O)[C@H](C(C)C)NC(=O)[C@H](CC(C)C)NC1=O)C(C)C [SP-86] (Ac-IDEEVLM[S5]LVI[S5]MGLDRIKELPELWL-NH2; staple 8-12)
18 h Avg % max inhibition at top conc (HIF Rptr-24 hrs normoxia) (μM) (HRE-bla ME-180 cells): ++++ (≥50: ++++) | EC50 (HRE-bla ME-180 cells): 5 to 15 µM

CCCC[C@H](NC(=O)[C@H](CC(C)C)NC(=O)[C@H](C)NC(=O)[C@H](CCC(=O)O)NC(=O)[C@H](CCC(=O)O)NC(=O)[C@H](CC(=O)O)NC(=O)[C@@H](NC(=O)[C@H](Cc1ccccc1)NC(C)=O)[C@@H](C)CC)C(=O)N[C@@]1(C)CCCC=CCCC[C@@](C)(C(=O)N[C@@H](CCCC)C(=O)N[C@@H](C)C(=O)N[C@@H](CC(C)C)C(=O)N[C@@H](CC(=O)O)C(=O)N[C@@H](CCCNC(=N)N)C(=O)N[C@H](C(N)=O)[C@@H](C)CC)NC(=O)[C@H]([C@@H](C)CC)NC(=O)[C@H](C(C)C)NC(=O)[C@H](CC(C)C)NC1=O [SP-14] (Ac-FIDEEAL[Nle][S5]LVI[S5][Nle]ALDRI-NH2; staple 9-13)
18 h Avg % max inhibition at top conc (HIF Rptr-24 hrs normoxia) (μM) (HRE-bla ME-180 cells): ++++ (≥50: ++++) | EC50 (HRE-bla ME-180 cells): 5 to 15 µM
